The target of one experiment is Paired box protein Pax-8 (Homo sapiens, UniProt Q06710). Briefly: inhibitors of PAX8-driven TPO luciferase reporter, dose response, RMG-I cells, cherry-pick (AID 687027).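 Note: luciferase reporter driven by Pax8 target thyroperoxidase promoter measured by SteadyGlo luminescence.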 The format is functional, cell-based.
Experiment [1] in a line: cytotoxicity in COV434 cells, dose response, cytotoxicity control for PAX8 inhibitor project, cell-based, plate reader, dry powder, SA7 (AID 743145). The format is functional.
The nature of experiment [2]: HepG2 cell cytotoxicity, dose response, cytotoxicity control for Shn3 inhibitor project, CellTiter-Glo, cherry-picked (AID 624134). Format: functional, cell-based.
Experiment [3] can be described thus: IOSE-T80 ovarian epithelial cell cytotoxicity, dose response, cytotoxicity control for PAX8 inhibitor project, plate reader, dry powder samples (AID 743045). Format: functional, cell-based.
Experiment [4] in a line: cytotoxicity in OV-90 ovarian cancer cells, dose response, PAX8 inhibitor project, cell-based, plate reader, dry powder, SA8 (AID 743149). Format: functional.
The nature of experiment [5]: control 3'UTR Renilla luciferase suppression, dose response, counter-screen for Shn3 inhibitor project, cell-based, Clone20-Shn3RL, cherry-picked (AID 624133). Format: functional.
A short description of experiment [6]: PAX2 cell-based inhibition, dose response, selectivity assay for PAX8 inhibitor project, plate reader, dry powder samples (AID 743048).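 Note: HEK293 cells carrying a WT1 promoter luciferase reporter driven by expressed Pax2; potency is for inhibition of Pax2 driven reporter signal.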 The format is functional.
A short description of experiment [7]: cytotoxicity in OVCAR4 cells, dose response, cytotoxicity control for PAX8 inhibitor project, cell-based, plate reader, dry powder, SA11 (AID 743150). As to conditions: OVCAR-4. The format is functional.
The target in experiment [8] is T1, Replicative DNA helicase DnaB (Mycobacterium tuberculosis, UniProt P9WMR3).
T1 sequence (P9WMR3 whole entry): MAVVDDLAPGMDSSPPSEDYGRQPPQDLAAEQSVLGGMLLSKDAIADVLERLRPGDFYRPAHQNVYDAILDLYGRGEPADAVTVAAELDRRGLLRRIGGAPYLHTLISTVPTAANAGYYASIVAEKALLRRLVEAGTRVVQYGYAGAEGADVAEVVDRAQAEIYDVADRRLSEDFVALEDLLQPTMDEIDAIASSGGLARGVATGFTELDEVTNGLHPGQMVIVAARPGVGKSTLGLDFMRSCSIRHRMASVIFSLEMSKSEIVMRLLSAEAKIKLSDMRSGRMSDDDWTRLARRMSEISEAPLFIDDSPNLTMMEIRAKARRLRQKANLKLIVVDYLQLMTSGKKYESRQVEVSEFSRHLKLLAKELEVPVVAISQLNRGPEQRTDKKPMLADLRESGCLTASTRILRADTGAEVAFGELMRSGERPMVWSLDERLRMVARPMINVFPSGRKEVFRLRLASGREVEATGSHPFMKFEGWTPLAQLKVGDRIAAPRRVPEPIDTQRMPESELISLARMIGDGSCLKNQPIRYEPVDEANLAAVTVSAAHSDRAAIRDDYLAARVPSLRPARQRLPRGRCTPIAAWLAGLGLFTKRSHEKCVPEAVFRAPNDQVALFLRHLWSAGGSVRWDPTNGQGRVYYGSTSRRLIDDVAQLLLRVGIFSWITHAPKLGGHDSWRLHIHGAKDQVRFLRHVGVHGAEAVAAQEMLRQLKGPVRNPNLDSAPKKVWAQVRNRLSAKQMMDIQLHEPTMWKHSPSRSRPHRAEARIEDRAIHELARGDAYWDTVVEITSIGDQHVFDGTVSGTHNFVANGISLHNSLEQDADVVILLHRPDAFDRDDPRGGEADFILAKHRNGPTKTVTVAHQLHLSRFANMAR
Description: DnaB intein splicing inhibitors, dose response, biochemical, cell-free fluorescence (AID 449749). The format is functional.

Another experiment concerns the target T2, Protein RecA (Mycobacterium tuberculosis, UniProt P9WHJ3).
T2 sequence (P9WHJ3 whole entry): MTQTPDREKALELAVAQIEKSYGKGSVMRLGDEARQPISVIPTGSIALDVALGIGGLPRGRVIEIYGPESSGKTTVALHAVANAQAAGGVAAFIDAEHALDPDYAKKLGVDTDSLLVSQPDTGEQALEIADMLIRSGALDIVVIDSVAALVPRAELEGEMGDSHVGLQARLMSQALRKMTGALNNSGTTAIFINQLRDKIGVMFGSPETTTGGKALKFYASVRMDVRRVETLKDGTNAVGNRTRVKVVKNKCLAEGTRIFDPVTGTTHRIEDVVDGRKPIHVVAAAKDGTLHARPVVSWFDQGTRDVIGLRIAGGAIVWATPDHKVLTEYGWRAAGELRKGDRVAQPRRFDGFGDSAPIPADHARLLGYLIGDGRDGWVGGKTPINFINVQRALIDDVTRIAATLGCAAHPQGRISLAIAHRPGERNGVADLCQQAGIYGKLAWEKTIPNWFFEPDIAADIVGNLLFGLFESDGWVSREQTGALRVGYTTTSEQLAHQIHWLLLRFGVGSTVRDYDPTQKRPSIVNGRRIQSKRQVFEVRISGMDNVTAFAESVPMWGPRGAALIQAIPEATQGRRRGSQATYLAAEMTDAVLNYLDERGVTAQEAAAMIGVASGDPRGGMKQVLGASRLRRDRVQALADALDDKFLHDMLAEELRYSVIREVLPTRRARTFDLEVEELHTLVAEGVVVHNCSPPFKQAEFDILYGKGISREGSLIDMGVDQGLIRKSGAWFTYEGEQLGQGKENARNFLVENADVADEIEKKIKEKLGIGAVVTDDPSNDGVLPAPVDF
Description: Fluorescence Cell-Free Homogeneous Dose Retest to Identify Inhibitors of RecA-Intein Splicing Activity. [Related pubchem assays (depositor defined):AID2097, AID2223, AID489010, AID492950]. The format is functional.

Experiment [9] has as its target T3, Hepatocyte nuclear factor 4-alpha (Homo sapiens, UniProt P41235).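 Note: biochemical luminescence-based dose-response counterscreen measuring inhibition of HNF4 dimerization, run alongside a screen for blockers of ABHD5–perilipin-5 interaction; split luciferase complementation of HNF4 fusion proteins in cell lysate measuring dimerization.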
T3 sequence (P41235 whole entry): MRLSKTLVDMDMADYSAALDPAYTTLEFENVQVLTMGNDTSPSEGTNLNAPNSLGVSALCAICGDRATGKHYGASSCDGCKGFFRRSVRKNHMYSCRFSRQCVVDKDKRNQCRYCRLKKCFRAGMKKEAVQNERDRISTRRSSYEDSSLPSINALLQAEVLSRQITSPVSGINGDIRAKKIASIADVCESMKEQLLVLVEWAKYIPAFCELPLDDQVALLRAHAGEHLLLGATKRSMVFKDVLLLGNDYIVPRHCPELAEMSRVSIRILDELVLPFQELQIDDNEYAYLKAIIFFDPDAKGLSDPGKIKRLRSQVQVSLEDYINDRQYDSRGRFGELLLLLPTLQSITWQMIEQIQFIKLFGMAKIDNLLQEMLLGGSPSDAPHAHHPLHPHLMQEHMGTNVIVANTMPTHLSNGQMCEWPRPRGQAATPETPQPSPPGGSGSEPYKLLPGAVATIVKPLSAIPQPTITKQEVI
Format: functional, cell-based.

Another experiment deals with Vero. Description: cells. Format: functional. As to conditions: Chlorocebus sabaeus.
A short description of experiment [10]: Shn3 3'UTR reporter inhibitors, dose response, cell-based, Clone20 osteoblasts, firefly luciferase, cherry-picked (AID 624132).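 Note: firefly luciferase luminescence from reporter carrying the Shn3 3'UTR in osteoblasts.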 Format: functional.
Experiment [11] in a line: NIH:OVCAR-3 ovarian cancer cell cytotoxicity, dose response, PAX8 inhibitor project, plate reader, dry powder samples (AID 743044). The format is functional, cell-based.
Experiment [12] is described as follows: IGROV1 ovarian cancer cell cytotoxicity, dose response, PAX8 inhibitor project, plate reader, dry powder samples (AID 743043). Format: functional, cell-based. The following applies: IGROV-1.
A short description of experiment [13]: cytotoxicity in COV362 ovarian cancer cells, dose response, cytotoxicity control for PAX8 inhibitor project, cell-based, plate reader, dry powder, SA12 (AID 743144). Format: functional.
The nature of experiment [14]: cytotoxicity dependent on PAX8, dose response, cell-based, plate reader, dry powder (AID 743049). Format: functional.
The next experiment concerns INS1. Description: beta cell apoptosis inhibitors, cytokine rescue, dose response, luminescence, retest (AID 449756).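 Note: cell death triggered by IL-1 beta plus TNF-alpha plus IFN-gamma mixture; protective hits raise ATP signal compared with cytokine alone wells.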 The following applies: Rattus norvegicus. The format is functional, cell-based.
The nature of experiment [15]: PAX5 activity inhibitors, dose response, selectivity assay for PAX8 inhibitor project, cell-based, plate reader, dry powder samples (AID 743047).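 Note: HEK293 cells carrying a Pax5 driven CD19 promoter luciferase reporter; potency of inhibitors that lower reporter luminescence.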 Format: functional.
Experiment [16] deals with Neurotensin receptor type 1 (Homo sapiens, UniProt P30989). Format: functional.
Experiment [17] can be described thus: A2780 ovarian cancer cell cytotoxicity, dose response, cytotoxicity control, plate reader, dry powder samples (AID 743046). The format is functional, cell-based.
The target in experiment [18] is T4, Oxysterols receptor LXR-beta (Homo sapiens, UniProt P55055).
T4 sequence (P55055 whole entry): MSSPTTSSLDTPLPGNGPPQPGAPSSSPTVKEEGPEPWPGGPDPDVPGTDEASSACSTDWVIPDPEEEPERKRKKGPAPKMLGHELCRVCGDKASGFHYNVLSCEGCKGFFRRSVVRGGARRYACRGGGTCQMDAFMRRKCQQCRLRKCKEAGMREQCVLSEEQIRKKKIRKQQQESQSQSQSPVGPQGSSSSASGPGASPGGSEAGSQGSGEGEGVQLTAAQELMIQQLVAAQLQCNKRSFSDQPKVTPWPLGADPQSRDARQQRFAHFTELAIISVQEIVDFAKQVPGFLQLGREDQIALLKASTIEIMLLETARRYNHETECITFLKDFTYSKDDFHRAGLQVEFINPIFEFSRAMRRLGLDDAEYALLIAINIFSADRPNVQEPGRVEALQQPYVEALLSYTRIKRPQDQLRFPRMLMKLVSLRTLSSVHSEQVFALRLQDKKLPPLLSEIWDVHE
Briefly: LXR agonists, Gal4 luciferase reporter, dose response, counter-screen for ssDAF-12 agonist project, cell-based, luminescence, HEK293, S. stercoralis campaign (AID 720737). Format: functional. The following applies: read-out: IC50 (the source's name).

Experiment [19] is described as follows: cells.
Experiment [20] concerns the target T4, Oxysterols receptor LXR-beta. The format is functional, cell-based.
A short description of experiment [21]: Luminescence-based cell-based high throughput dose response assay to identify activators of the DAF-12 from the parasite S. stercoralis (ssDAF-12). Format: functional.
The nature of experiment [22]: HepG2 cell cytotoxicity, dose response, cytotoxicity control, ATP luminescence, cherry-pick, activator set 2 (AID 1053143). The format is functional, cell-based.
The nature of experiment [23]: Vero cell cytotoxicity, dose response, cytotoxicity control for Vif-APOBEC3G degradation inhibitor project, Vero cells (AID 1117358). Format: functional. The following applies: Human immunodeficiency virus 1, Vero.
The target of experiment [24] is G-protein coupled receptor 183 (Homo sapiens, UniProt P32249). Briefly: SAR confirmation of small molecule antagonists of the EBI2 receptor via a luminescent beta-arrestin assa. The format is functional.
Experiment [25] can be described thus: Glucagon-like peptide 1 release potency, NCI-H716 cell line, dose-response, half-maximal inhibitory concentration (AID 1117344). The format is functional, cell-based.
A short description of experiment [26]: half-maximal inhibitory concentration for glucagon-like peptide-1 release, STC-1 cell line, dose-response (AID 1117345). The format is functional, cell-based.
Experiment [27] is described as follows: cells. Format: functional, cell-based. As to conditions: INS-1E.
Experiment [28] can be described thus: Dose-response inhibition of insulin secretion in a rat insulinoma line at 5 mM glucose (AID 1117331). Format: functional, cell-based. As to conditions: INS-1E.

Where a name gives a salt, the structure may show the parent alone. The source made the active and inactive calls.

Chain of G-protein coupled receptor 183 (P32249 whole entry): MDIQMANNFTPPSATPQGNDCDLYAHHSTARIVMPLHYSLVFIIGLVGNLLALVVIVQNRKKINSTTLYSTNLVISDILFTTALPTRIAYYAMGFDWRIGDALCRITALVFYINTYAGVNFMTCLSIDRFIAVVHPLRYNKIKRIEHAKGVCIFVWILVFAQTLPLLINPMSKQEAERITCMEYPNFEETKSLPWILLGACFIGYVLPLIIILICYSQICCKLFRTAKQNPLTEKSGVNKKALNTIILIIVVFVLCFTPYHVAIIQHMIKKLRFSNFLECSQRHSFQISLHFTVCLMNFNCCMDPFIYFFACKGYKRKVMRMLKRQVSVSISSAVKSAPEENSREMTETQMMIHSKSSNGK
Chain of Neurotensin receptor type 1 (P30989 whole entry): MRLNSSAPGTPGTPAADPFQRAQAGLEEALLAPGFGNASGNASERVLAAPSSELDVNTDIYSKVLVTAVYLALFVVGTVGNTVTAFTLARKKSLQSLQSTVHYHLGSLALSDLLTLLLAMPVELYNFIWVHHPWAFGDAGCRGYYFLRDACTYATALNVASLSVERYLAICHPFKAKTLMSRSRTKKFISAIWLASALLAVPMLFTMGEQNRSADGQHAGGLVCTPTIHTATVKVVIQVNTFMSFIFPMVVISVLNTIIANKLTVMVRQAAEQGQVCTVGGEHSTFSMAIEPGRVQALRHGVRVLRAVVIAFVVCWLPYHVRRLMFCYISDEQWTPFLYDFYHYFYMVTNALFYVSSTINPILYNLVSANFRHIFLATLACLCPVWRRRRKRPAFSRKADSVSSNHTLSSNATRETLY
Chain of Paired box protein Pax-8 (Q06710 whole entry): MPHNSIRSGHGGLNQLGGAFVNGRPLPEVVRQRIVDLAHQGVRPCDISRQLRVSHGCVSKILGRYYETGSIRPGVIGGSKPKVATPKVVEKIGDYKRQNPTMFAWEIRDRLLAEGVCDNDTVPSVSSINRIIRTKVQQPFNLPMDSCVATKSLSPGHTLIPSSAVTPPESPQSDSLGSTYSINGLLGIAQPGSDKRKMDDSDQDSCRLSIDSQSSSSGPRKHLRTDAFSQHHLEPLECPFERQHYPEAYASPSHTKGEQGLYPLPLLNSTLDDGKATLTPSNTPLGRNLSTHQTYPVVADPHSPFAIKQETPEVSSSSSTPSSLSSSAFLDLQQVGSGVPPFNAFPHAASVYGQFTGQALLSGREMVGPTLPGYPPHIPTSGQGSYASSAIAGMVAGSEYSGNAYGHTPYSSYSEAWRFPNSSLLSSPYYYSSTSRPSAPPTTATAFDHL

Regarding `O=C(Nc1ccc(Cl)cc1)/C(=C/c1cccc(O)c1)c1nc2ccccc2s1`, the concentration at half-maximal activity (AC50) on Paired box protein Pax-8 is 3.92 µM (active); in [1] it was 9.35 µM (active); in experiment [2], 9.66 µM (active); in [3], 11.5 µM (active); in [4], 4.14 µM (active); in experiment [5], 9.54 µM (active). For the same molecule, the AC50 in [6] is 12.8 µM (active); in experiment [7] it was 13.7 µM (active); in [8], > 380 µM (inconclusive); in experiment [10] it was 3.53 µM (active); in experiment [11], 8.14 µM (active); in experiment [12], 30.7 µM (active). The AC50 in experiment [13] was 5.28 µM (active); in experiment [14] it was 4.02 µM (active); with INS1, 3.7 µM (active); in experiment [15], 7.08 µM (active); in [17] it was 15.1 µM (active). Moreover, the values for the EC50 (on Protein RecA; in experiment [16]) were 481 nM (active) and 6.69 µM (active), respectively. Besides, the IC50 in experiment [9] was 4.66 µM (active). Moreover, the CC50 in the experiment with Vero was 2.37 µM (active).
In the case of `Oc1ccccc1-c1cc(-c2ccccc2)[nH]n1`, the EC50 (in experiment [18]; in the experiment “cells [19]”; in [20]) was > 67.4 µM (inactive) throughout. Moreover, the IC50 in experiment [21] was > 67.4 µM (inactive). For the same molecule, the AC50 in [22] is 26 µM (active).
As for `Cc1ccccc1C(=O)N/N=C1/SCC(=O)N1Cc1ccccc1`, the EC50 in [18] was > 67.5 µM (inactive). Also, the IC50 in [21] was > 67.5 µM (inactive).
For `C=CCOc1ccc(Br)cc1/C=N/O`, the 50% cytotoxic concentration (CC50) in experiment [23] is 2.72 µM (active).
With `O=C(/C=C/c1ccc(Br)cc1)N1CCN(Cc2cccc(F)c2)CC1`, in experiment [24], the IC50 was 2.61 nM (active).
On to `O=C(/C=C/c1ccccc1)N1CCN(Cc2ccc(F)cc2)CC1`, for which the IC50 in experiment [24] was 21.6 nM (active).
`CC(=O)NO` [ACETOHYDROXAMIC ACID]: the IC50 in experiment [25] and in [26] was > 40 µM (inactive) each time.
Take `CN1CCCN(C(c2ccccc2)c2ccc(Cl)cc2)CC1` (configuration not stated) [HOMOCHLORCYCLIZINE]: the figures for the IC50 (in the experiment “cells [27]”; in experiment [28]) were > 33.3 µM (inactive) and > 3.7 µM (inactive), respectively.
Regarding `CN(C)C/C=C(/c1ccc(Br)cc1)c1cccnc1` [ZIMELDINE HYDROCHLORIDE], the results for the IC50 (in the experiment “cells [27]”; in [28]) were > 33.3 µM (inactive) and 8.36 µM (inactive), respectively.
